Data: patent US7915297B2, “Isoxazole derivatives and use thereof” (SK Holdings Co., Ltd., priority 2005, dated 2011)

What was measured:
[1] = test system: Wnt/β-catenin signaling (β-catenin activity) in SW480 cell line; experiment: Cell-based Wnt agonist screening, TCF luciferase reporter, SW480 (TCF-FL); set-up: species or system human; conditions: Homo sapiens, % of LiCl (20 mM), 24 h, read-out: Max. Activity (%); for Emax at 120 µM: Con. 120 μM; for Emax at 1 µM: Con. 1 μM; for Emax at 30 µM: Con. 30 μM; for Emax at 10 µM: Con. 10 μM
Summary of the method: (§1)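 HEK293 and SW480 lines stably carried a 5X TCF firefly luciferase reporter under G418 selection. Cells (8,000–15,000/well, RPMI 1640 with 5% FBS) were grown 24 h, then treated with compound for 24 h. Luciferase activity was expressed as percent of the 20 mM LiCl positive control.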

[2] = test system: ST-2, a murine bone marrow stromal T cell; experiment: Differentiation of ST2 cell line into osteoblasts, alkaline phosphatase activity; format: cell-based; conditions: Mus musculus, 96 h; ST-2 cells, 11 μM compound, 4 days; control treated only with ascorbic acid and β-glycerolphosphate = 100; read-out: ALP Activity (% Control)
Procedure: The derivatives synthesized according to the present invention were assayed for their ability to differentiate stem cells into osteoblasts. In this regard, ST-2, a murine bone marrow stromal T cell, was used to measure the activity of bone-specific alkaline phosphatase, a marker of early-stage osteoblast differentiation. In detail, the cell line was cultured in an MEM supplemented with penicillin-streptomycin (100 Units/mL) and heat-inactivated 5% fetal bovine serum under standard culture conditions (5% CO2, 37° C., 100% relative humidity). […] The suspension was diluted with the same medium to adjust the cell count to 5,000˜10,000 cells per well, and was moved in a 96-well microtiter, subsequently. After being incubated for 24 hrs, the cells were treated in a medium containing 50 μg/ml of ascorbic acid and 5 mM of β-glycerolphosphate with various concentrations of the isoxazole derivatives synthesized in Preparation Examples. During incubation for one to nine days, the Alkaline phosphatase activity was analyzed using a […] Assay kit (Promega, U.S.A.) according to the protocol described in the manual provided by the manufacturer. The activities were measured in cells which had been incubated at 11 μM of each of the compounds for 4 days. Data on the activities of the isoxazole derivatives synthesized are given in Tables 44 to 47 and are expressed as percentages of ALP relative to that measured in the control, which was treated only with ascorbic acid and β-glycerolphosphate. ALP activities according to the concentrations of Derivative (1) are depicted in FIG. 5.

[3] = test system: Wnt/β-catenin signaling (β-catenin activity) in HEK293 cell line; experiment: Cell-based Wnt agonist screening, TCF luciferase reporter, HEK293 (TCF-FL); set-up: species or system human; conditions: Homo sapiens, HEK293, 24 h, % of LiCl (20 mM), 24 h, read-out: Max. Activity (%); for Emax at 120 µM: Conc. 120 μM; for Emax at 30 µM: Conc. 30 μM; for Emax at 10 µM: Conc. 10 μM
Summary of the method: as §1

Which results are given for `O=C(NCCCn1cncn1)c1cc(-c2ccc(Cl)cc2)on1` [Derivative (96), 5-(4-chloro-phenyl)-isoxazole-3-carboxylic acid (3-[1,2,4]triazol-1-yl-propyl)-amide]?
Emax at 120 µM [1]: 80%; activity at 11 µM [2]: 97%; Emax at 120 µM [3]: 80%

For `COc1ccc(-c2cc(C(=O)NCCc3ccncc3)no2)cc1` [Derivative (102), 5-(4-methoxy-phenyl)-isoxazole-3-carboxylic acid (2-pyridin-4-yl-ethyl)-amide], which Emax at 120 µM [1] is on record?
Its Emax at 120 µM is 73%.

What about the activity at 11 µM [2] of the same compound?
Its activity at 11 µM is 148%.

What about the Emax at 120 µM [3] of the same compound?
The Emax at 120 µM was 73%.

`O=C(NCCCn1ccnc1)c1cc(-c2ccc([N+](=O)[O-])cc2)on1` [Derivative (114), 5-(4-nitro-phenyl)-isoxazole-3-carboxylic acid (3-imidazol-1-yl-propyl)-amide] was tested. Which Emax at 1 µM [1] did it give?
The Emax at 1 µM was 31%.

What about the activity at 11 µM [2] of the same compound?
Its activity at 11 µM is 339%.

What about the Emax at 1 µM ([3]; Conc. 1 μM) of the same compound?
The Emax at 1 µM was 31%.

For `Cc1cncn1CCNC(=O)c1cc(-c2ccco2)on1` [Derivative (36), 5-furan-2-yl-isoxazole-3-carboxylic acid [2-(5-methyl-imidazol-1-yl)-ethyl]-amide], which Emax at 120 µM [1] is on record?
Its Emax at 120 µM is 283%.

What about the activity at 11 µM [2] of the same compound?
The activity at 11 µM was 396%.

And the Emax at 120 µM [3]?
Its Emax at 120 µM is 71%.

What does the source list for `O=C(NCCc1ccc(O)c(O)c1)c1cc(-c2ccco2)on1` [Derivative (28), 5-furan-2-yl-isoxazole-3-carboxylic acid [2-(3,4-dihydroxy-phenyl)-ethyl]-amide]?
Emax at 30 µM [1]: < 20%; activity at 11 µM [2]: 436%; Emax at 30 µM [3]: < 20%

For `O=C(NCCn1ccnc1)c1cc(-c2ccc(F)cc2)on1` [Derivative (86), 5-(4-fluoro-phenyl)-isoxazole-3-carboxylic acid (2-imidazol-1-yl-ethyl)-amide], which Emax at 30 µM [1] is on record?
Its Emax at 30 µM is less than 20%.

And the activity at 11 µM [2]?
The activity at 11 µM was 546%.

And the Emax at 30 µM [3]?
Its Emax at 30 µM is less than 20%.

Which results are given for `COc1ccc(CCNC(=O)c2cc(-c3ccco3)on2)cc1` [Derivative (21), 5-furan-2-yl-isoxazole-3-carboxylic acid [2-(4-methoxy-phenyl)-ethyl]-amide]?
Emax at 30 µM [1]: 287%; activity at 11 µM [2]: 334%; Emax at 30 µM [3]: 23%

For `O=C(NCCn1ccnc1)c1cc(-c2ccccc2F)on1` [Derivative (85), 5-(2-fluoro-phenyl)-isoxazole-3-carboxylic acid (2-imidazol-1-yl-ethyl)-amide], which Emax at 30 µM [1] is on record?
The Emax at 30 µM was less than 20%.

What about the activity at 11 µM [2] of the same compound?
The activity at 11 µM was 640%.

And the Emax at 30 µM [3]?
Its Emax at 30 µM is less than 20%.

`COc1ccc(-c2cc(C(=O)NCCCn3ccnc3)no2)cc1` [Derivative (101), 5-(4-methoxy-phenyl)-isoxazole-3-carboxylic acid (3-imidazol-1-yl-propyl)-amide] was tested. Which Emax at 120 µM [1] did it give?
Its Emax at 120 µM is 205%.

And the activity at 11 µM [2]?
The activity at 11 µM was 592%.

And the Emax at 120 µM [3]?
Its Emax at 120 µM is 205%.

Which results are given for `COc1cccc(-c2cc(C(=O)NCCc3ccncc3)no2)c1` [Derivative (103), 5-(3-methoxy-phenyl)-isoxazole-3-carboxylic acid (2-pyridin-4-yl-ethyl)-amide]?
Emax at 10 µM [1]: 42%; activity at 11 µM [2]: 103%; Emax at 10 µM [3]: 42%

What does the source list for `O=C(NCCCn1ccnc1)c1cc(-c2ccc(Cl)cc2)on1` [Derivative (98), 5-(4-chloro-phenyl)-isoxazole-3-carboxylic acid (3-imidazol-1-yl-propyl)-amide]?
Emax at 120 µM [1]: 54%; activity at 11 µM [2]: 90%; Emax at 120 µM [3]: 54%

For `O=C(NCCn1cccn1)c1cc(-c2ccc(F)cc2)on1` [Derivative (87), 5-(4-fluoro-phenyl)-isoxazole-3-carboxylic acid (2-pyrazol-1-yl-ethyl)-amide], which Emax at 30 µM [1] is on record?
The Emax at 30 µM was less than 20%.

And the activity at 11 µM [2]?
The activity at 11 µM was 428%.

And the Emax at 30 µM [3]?
The Emax at 30 µM was less than 20%.

`Cc1ccc(CCNC(=O)c2cc(-c3ccco3)on2)cc1` [Derivative (15), 5-furan-2-yl-isoxazole-3-carboxylic acid (2-p-tolyl-ethyl)-amide] was tested. Which Emax at 30 µM [1] did it give?
The Emax at 30 µM was less than 20%.

What about the activity at 11 µM [2] of the same compound?
Its activity at 11 µM is 278%.

And the Emax at 30 µM [3]?
Its Emax at 30 µM is less than 20%.

Which results are given for `Cc1nccn1CCNC(=O)c1cc(-c2ccco2)on1` [Derivative (35), 5-furan-2-yl-isoxazole-3-carboxylic acid [2-(2-methyl-imidazol-1-yl)-ethyl]-amide]?
Emax at 120 µM [1]: 130%; activity at 11 µM [2]: 686%; Emax at 120 µM [3]: 35%

With `O=C(NCCn1cncn1)c1cc(-c2ccc(Cl)cc2)on1` [Derivative (97), 5-(4-chloro-phenyl)-isoxazole-3-carboxylic acid (2-[1,2,4]triazol-1-yl-ethyl)-amide] as the compound, how does the Emax at 10 µM [1] read?
The Emax at 10 µM was 53%.

And the activity at 11 µM [2]?
The activity at 11 µM was 91%.

And the Emax at 10 µM [3]?
Its Emax at 10 µM is 53%.

What does the source list for `O=C(NCCN1CCN(c2ccccn2)CC1)c1cc(-c2ccco2)on1` [Derivative (182), 5-furan-2-yl-isoxazole-3-carboxylic acid [2-(4-pyridin-2-yl-piperazin-1-yl)-ethyl]-amide]?
Emax at 30 µM [1]: 413%; activity at 11 µM [2]: 887%

With `COc1cc(OC)cc(N2CCN(CCNC(=O)c3cc(-c4ccco4)on3)CC2)c1` [Derivative (188), 5-furan-2-yl-isoxazole-3-carboxylic acid {2-[4-(3,5-dimethoxyphenyl)-piperazin-1-yl]-ethyl}-amide] as the compound, how does the Emax at 1 µM [1] read?
The Emax at 1 µM was 200%.

And the activity at 11 µM [2]?
The activity at 11 µM was 151%.

Which Emax at 30 µM [1] does the source give for `O=C(NCCn1ccnc1)c1cc(-c2ccsc2)on1` [Derivative (157), 5-thiophen-3-yl-isoxazole-3-carboxylic acid (2-imidazol-1-yl-ethyl)-amide] here?
The Emax at 30 µM was 871%.

And the activity at 11 µM [2]?
Its activity at 11 µM is 809%.

Which Emax at 60 µM ([1]; Con. 60 μM) does the source give for `COc1ccccc1-c1cc(C(=O)NCCc2ccncc2)no1` [Derivative (104), 5-(2-methoxy-phenyl)-isoxazole-3-carboxylic acid (2-pyridin-4-yl-ethyl)-amide] here?
The Emax at 60 µM was 884%.

What about the activity at 11 µM [2] of the same compound?
Its activity at 11 µM is 103%.

And the Emax at 30 µM [3]?
The Emax at 30 µM was 35%.

What about the Emax at 60 µM ([3]; Conc. 60 μM) of the same compound?
The Emax at 60 µM was 884%.

How did the Emax at 120 µM [1] turn out when `CC(=O)N1CCN(CCNC(=O)c2cc(-c3ccco3)on2)CC1` [Derivative (178), 5-furan-2-yl-isoxazole-3-carboxylic acid [2-(4-acetyl-piperazin-1-yl)-ethyl]-amide] was run?
Its Emax at 120 µM is 301%.

And the activity at 11 µM [2]?
The activity at 11 µM was 475%.

Which Emax at 30 µM [1] does the source give for `O=C(NCCNc1ccc(Cl)cc1)c1cc(-c2ccco2)on1` [Derivative (198), 5-furan-2-yl-isoxazole-3-carboxylic acid [2-(4-chloro-phenylamino)-ethyl]-amide] here?
Its Emax at 30 µM is 50%.

And the activity at 11 µM [2]?
The activity at 11 µM was 100%.

With `O=C(NCCn1cncn1)c1cc(-c2ccoc2)on1` [Derivative (154), 5-furan-3-yl-isoxazole-3-carboxylic acid (2-[1,2,4]-triazol-1-yl-ethyl)-amide] as the compound, how does the Emax at 120 µM [1] read?
The Emax at 120 µM was 113%.

What about the activity at 11 µM [2] of the same compound?
The activity at 11 µM was 310%.

How did the Emax at 120 µM [1] turn out when `O=C(NCCn1cncn1)c1cc(-c2cc3ccccc3o2)on1` [Derivative (171), 5-benzofuran-2-yl-isoxazole-3-carboxylic acid (2-[1,2,4]triazol-1-yl-ethyl)-amide] was run?
Its Emax at 120 µM is 43%.

What about the activity at 11 µM [2] of the same compound?
The activity at 11 µM was 74%.

Which Emax at 120 µM [1] does the source give for `O=C(NCCCn1ccnc1)c1cc(C2CCCCC2)on1` [Derivative (164), 5-cyclohexyl-3-isoxazole-3-carboxylic acid (3-imidazol-1-yl-propyl)-amide] here?
Its Emax at 120 µM is 55%.

What about the activity at 11 µM [2] of the same compound?
The activity at 11 µM was 241%.
